Experiment: molar heat capacity at constant pressure
Conditions: 101.33 kPa, Crystal

O=C([O-])[O-].[Li+].[Li+] [lithium carbonate]
Conditions | molar heat capacity at constant pressure [J/K/mol]
303.15 K | 99.89
323.15 K | 100.98
343.15 K | 107.69
363.15 K | 111.21
383.15 K | 115.61
403.15 K | 116.88
443.15 K | 120.05
483.15 K | 129.08
533.15 K | 132.77
563.15 K | 137.29

— the NIST ThermoML archive (doi:10.1016/j.tca.2006.10.005)
